Assay results published in patent publication US9211310B2, “Use of a Chinese medicine composition in preparing medicaments for treating secondary prevention of myocardial infarction” (TASLY PHARMACEUTICAL GROUP CO., LTD, priority 2010, dated 2015).

Tested on: patients after acute myocardial infarction
Experiment: Life quality, Seattle Angina Questionnaire (SAQ), same clinical trial
Assay type: in vivo, human
Source text: 3508 patients who were in accordance with the diagnostic standards of AMI for 28 days to 2 years and differentiated as Qi deficiency and blood stagnation syndrome by TCM were studied. 0.5 g Chinese medicine composition prepared by the method of EXAMPLE 1 (Coded as QSYQ) was administrated half an hour after meal, 3 times per day.
There were 19 questions in the Seattle angina questionnaire (SAQ), including 5 parts: physical limitation (PL), anginal stability (AS), anginal frequency (AF), treatment satisfaction (TS) and disease perception (DP). After being given necessary explanation by doctors, the questions were answered independently by patients.
They included the overall survival time, angina pectoris score, TCM symptom score and life quality score, where angina pectoris score, TCM symptom score and life quality score were evaluated at randomization, in 1st, 3rd, 6th, 9th, 12th month after treatment and 18th month after follow-up.
All evaluation results of SAQ were described during the period of observation, and Wilcoxon rank sum test was used for inter-group comparison.
The evaluation results in the SAQ were depicted in different observations, and inter-group comparison was tested by Wilcoxon Rank-sum test.

## CC(=O)Oc1ccccc1C(=O)O [Control group, aspirine]
3 months after treatment, PP
  SAQ 3rd question: ≧4 times per day, cases: 6
  SAQ Question 1-3: Mildly limited, number of patients: 81
  SAQ Question 1-3: Mildly limited, percent of patients: (5.51%)
  SAQ Question 1-3: Moderately limited, number of patients: 16
  SAQ Question 1-3: Moderately limited, percent of patients: (1.09%)
  SAQ Question 1-3: Not limited, number of patients: 1103
  SAQ Question 1-3: Not limited, percent of patients: (75.03%)
  SAQ Question 1-3: Other reason, number of patients: 8
  SAQ Question 1-3: Other reason, percent of patients: (0.54%)
  SAQ Question 1-3: Severely limited, number of patients: 5
  SAQ Question 1-3: Severely limited, percent of patients: (0.34%)
  SAQ Question 1-3: Slightly limited, number of patients: 257
  SAQ Question 1-3: Slightly limited, percent of patients: (17.48%)
  SAQ Question 1-4: Mildly limited, number of patients: 278
  SAQ Question 1-4: Mildly limited, percent of patients: (18.95%)
  SAQ Question 1-4: Moderately limited, number of patients: 105
  SAQ Question 1-4: Moderately limited, percent of patients: (7.16%)
  SAQ Question 1-4: Not limited, number of patients: 559
  SAQ Question 1-4: Not limited, percent of patients: (38.10%)
  SAQ Question 1-4: Other limited, number of patients: 11
  SAQ Question 1-4: Other limited, percent of patients: (0.75%)
  SAQ Question 1-4: Severely limited, number of patients: 22
  SAQ Question 1-4: Severely limited, percent of patients: (1.50%)
  SAQ Question 1-4: Slightly limited, number of patients: 492
  SAQ Question 1-4: Slightly limited, percent of patients: (33.54%)
  SAQ Question 1-5: Mildly limited, number of patients: 268
  SAQ Question 1-5: Mildly limited, percent of patients: (18.27%)
  SAQ Question 1-5: Moderately limited, number of patients: 137
  SAQ Question 1-5: Moderately limited, percent of patients: (9.34%)
  SAQ Question 1-5: Not limited, number of patients: 594
  SAQ Question 1-5: Not limited, percent of patients: (40.49%)
  SAQ Question 1-5: Other reasons, number of patients: 11
  SAQ Question 1-5: Other reasons, percent of patients: (0.75%)
  SAQ Question 1-5: Severely limited, number of patients: 16
  SAQ Question 1-5: Severely limited, percent of patients: (1.09%)
  SAQ Question 1-5: Slightly limited, number of patients: 441
  SAQ Question 1-5: Slightly limited, percent of patients: (30.06%)
  SAQ Question 1-9: Mildly limited, % of cases: (18.45%)
  SAQ Question 1-9: Mildly limited, cases: 264
  SAQ Question 1-9: Moderately limited, % of cases: (20.48%)
  SAQ Question 1-9: Moderately limited, cases: 293
  SAQ Question 1-9: Not limited, % of cases: (3.70%)
  SAQ Question 1-9: Not limited, cases: 53
  SAQ Question 1-9: Other reaons, % of cases: (6.08%)
  SAQ Question 1-9: Other reaons, cases: 87
  SAQ Question 1-9: Severely limited, % of cases: (39.41%)
  SAQ Question 1-9: Severely limited, cases: 564
  SAQ Question 1-9: Slightly limited, % of cases: (11.88%)
  SAQ Question 1-9: Slightly limited, cases: 170
6 months after treatment, FAS
  SAQ 2nd question: 6, % of cases: (0.00%)
  SAQ 2nd question: 6, cases: 0
  SAQ 2nd question: Clearly increased, % of cases: (0.98%)
  SAQ 2nd question: Clearly increased, cases: 17
  SAQ 2nd question: Clearly reduced, % of cases: (22.98%)
  SAQ 2nd question: Clearly reduced, cases: 400
  SAQ 2nd question: Same, % of cases: (37.33%)
  SAQ 2nd question: Same, cases: 650
  SAQ 2nd question: Slightly increased, % of cases: (3.68%)
  SAQ 2nd question: Slightly increased, cases: 64
  SAQ 2nd question: Slightly reduced, % of cases: (35.04%)
  SAQ 2nd question: Slightly reduced, cases: 610
  SAQ 3rd question: 1-2 times per week, % of cases: (35.04%)
  SAQ 3rd question: 1-2 times per week, cases: 610
  SAQ 3rd question: 1-3 times per day, % of cases: (3.68%)
  SAQ 3rd question: 1-3 times per day, cases: 64
  SAQ 3rd question: <1 time per week, % of cases: (22.98%)
  SAQ 3rd question: <1 time per week, cases: 400
  SAQ 3rd question: No onset, % of cases: (0.00%)
  SAQ 3rd question: No onset, cases: 0
  SAQ 3rd question: ≧3 times per week, % of cases: (37.33%)
  SAQ 3rd question: ≧3 times per week, cases: 650
  SAQ 3rd question: ≧4 times per day, % of cases: (0.98%)
  SAQ 3rd question: ≧4 times per day, cases: 17
  SAQ Question 1-3: Mildly limited, number of patients: 86
  SAQ Question 1-3: Mildly limited, percent of patients: (4.93%)
  SAQ Question 1-3: Moderately limited, number of patients: 20
  SAQ Question 1-3: Moderately limited, percent of patients: (1.15%)
